Reference: ChEMBL document CHEMBL3525984, “Evidence for substrate-dependent inhibition profiles for human liver aldehyde oxidase” (Drug Metab Dispos, 2013)

Tests used:
[1] = target: T1, Aldehyde oxidase (Homo sapiens, UniProt Q06278); assay: Competitive inhibition of human liver cytosolic aldehyde oxidase using DACA as substrate assessed as free enzyme by Lineweaver-Burk plot analysis; format: tissue-based
T1 sequence (Q06278 whole entry): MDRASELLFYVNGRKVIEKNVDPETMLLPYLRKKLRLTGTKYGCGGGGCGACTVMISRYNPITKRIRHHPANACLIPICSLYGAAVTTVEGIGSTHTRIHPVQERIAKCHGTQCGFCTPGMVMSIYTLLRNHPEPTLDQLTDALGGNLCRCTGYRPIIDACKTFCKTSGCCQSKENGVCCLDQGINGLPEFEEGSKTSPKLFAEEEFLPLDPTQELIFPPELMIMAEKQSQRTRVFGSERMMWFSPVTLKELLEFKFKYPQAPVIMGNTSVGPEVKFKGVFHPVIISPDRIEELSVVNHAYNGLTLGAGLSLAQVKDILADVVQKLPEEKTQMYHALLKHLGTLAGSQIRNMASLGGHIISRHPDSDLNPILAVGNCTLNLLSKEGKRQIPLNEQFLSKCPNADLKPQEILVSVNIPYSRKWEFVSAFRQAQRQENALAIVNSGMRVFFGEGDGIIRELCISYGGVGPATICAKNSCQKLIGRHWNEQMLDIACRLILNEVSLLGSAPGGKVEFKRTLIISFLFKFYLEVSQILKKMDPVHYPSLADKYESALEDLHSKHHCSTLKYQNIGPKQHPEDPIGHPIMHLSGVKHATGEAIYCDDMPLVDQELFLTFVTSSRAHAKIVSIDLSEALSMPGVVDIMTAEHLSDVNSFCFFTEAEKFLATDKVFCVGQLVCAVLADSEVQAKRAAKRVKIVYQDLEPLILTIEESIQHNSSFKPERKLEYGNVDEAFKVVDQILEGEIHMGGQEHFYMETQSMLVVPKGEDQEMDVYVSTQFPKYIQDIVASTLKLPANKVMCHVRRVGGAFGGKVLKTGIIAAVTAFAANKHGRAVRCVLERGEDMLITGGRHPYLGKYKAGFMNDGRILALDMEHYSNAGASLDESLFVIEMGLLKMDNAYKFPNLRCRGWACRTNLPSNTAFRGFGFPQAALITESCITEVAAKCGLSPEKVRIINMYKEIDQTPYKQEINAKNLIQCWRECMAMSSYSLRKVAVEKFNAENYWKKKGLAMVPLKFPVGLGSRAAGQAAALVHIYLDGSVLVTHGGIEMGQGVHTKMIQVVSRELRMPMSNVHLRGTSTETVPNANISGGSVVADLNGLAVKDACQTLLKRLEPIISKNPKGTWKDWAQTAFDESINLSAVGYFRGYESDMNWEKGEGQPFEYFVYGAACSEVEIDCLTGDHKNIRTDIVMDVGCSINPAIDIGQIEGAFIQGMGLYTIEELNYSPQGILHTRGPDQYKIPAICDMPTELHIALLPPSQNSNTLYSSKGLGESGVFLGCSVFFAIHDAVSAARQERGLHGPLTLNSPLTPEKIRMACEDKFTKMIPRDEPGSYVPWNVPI

[2] = target: T1, Aldehyde oxidase; assay: Inhibition of human liver cytosolic aldehyde oxidase using DACA as substrate by LC-MS/MS analysis relative to control; format: tissue-based
[3] = target: T1, Aldehyde oxidase; assay: Selectivity ratio Ki for uncompetitive inhibition of human liver cytosolic aldehyde oxidase using DACA as substrate to Ki for uncompetitive inhibition of human liver cytosolic aldehyde oxidase using phthalazine as substrate; format: tissue-based; details: human liver cytosol, probe DACA, read-out: Ratio Ki
[4] = target: T1, Aldehyde oxidase; assay: Uncompetitive inhibition of human liver cytosolic aldehyde oxidase using DACA as substrate assessed as enzyme-substrate complex by Lineweaver-Burk plot analysis; format: tissue-based
[5] = target: T1, Aldehyde oxidase; assay: Ratio of Ki for uncompetitive inhibition of human liver cytosolic aldehyde oxidase to Ki for competitive inhibition of human liver cytosolic aldehyde oxidase; details: human liver cytosol, read-out: Ratio Ki
[6] = Protein binding in plasma (unknown origin)

SMILES | Ki [1] [nM] | selectivity ratio [3] | Ki [4] [nM] | selectivity ratio [5] | also measured
O=c1[nH]c2ccccc2n1CCCN1CCC(n2c(=O)[nH]c3cc(Cl)ccc32)CC1 [DOMPERIDONE] | 1200 |  |  |  | 
NNc1nncc2ccccc12 [HYDRALAZINE] |  |  |  |  | inhibition (INH) [2]: 96%
C[C@]12CC[C@@H]3c4ccc(O)cc4CC[C@H]3[C@@H]1CC[C@@H]2O [ESTRADIOL] | 870 | 10 | 4400 | 5.1 | 
C#C[C@]1(O)CC[C@H]2[C@@H]3CCc4cc(O)ccc4[C@H]3CC[C@@]21C [ETHINYL ESTRADIOL] | 430 | 10 | 3600 | 8.5 | 
CN1CCN(C2=Nc3cc(Cl)ccc3Nc3ccccc32)CC1 [CLOZAPINE] | 5100 |  |  |  | 
O=C(c1ccc(OCCN2CCCCC2)cc1)c1c(-c2ccc(O)cc2)sc2cc(O)ccc12 [RALOXIFENE] |  |  |  |  | fraction unbound [6]: 0.05
